In patent US10905744B2, “Pharmaceutical formulations for the oral delivery of peptide drugs” (Cyprumed GmbH, priority 2015, dated 2021):

How the values were obtained:
[1] = molecular target: T1, trypsin (Bos taurus, UniProt P00760); assay: Trypsin inhibition, BAPNA substrate, absorbance at 405 nm (Examples 10-12, 20-22, 25, 26, 28, 29, 33); format: biochemical
T1 construct: gene PRSS1
T1 sequence (P00760 24-246): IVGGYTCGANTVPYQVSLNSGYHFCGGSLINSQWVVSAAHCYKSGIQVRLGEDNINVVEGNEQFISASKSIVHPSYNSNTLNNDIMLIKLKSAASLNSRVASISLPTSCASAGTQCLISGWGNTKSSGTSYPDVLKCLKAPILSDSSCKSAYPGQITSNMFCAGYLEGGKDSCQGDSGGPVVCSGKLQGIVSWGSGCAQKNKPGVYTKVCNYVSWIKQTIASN
Protocol: 100 mg/ml copper gluconate in 50 mM TRIS pH 7; pH was adjusted to pH 7; stock solution was diluted to the following concentrations: 50 mg/ml, 25 mg/ml, 12.5 mg/ml, 5 mg/ml, 6.25 mg/ml, 3.125 mg/ml, 2.5 mg/ml, 1.25 mg/ml, 0.625 mg/ml, 0.313 mg/ml, 0.156 mg/ml and 0.078 mg/ml
0.5 mg/mL Benzoyl-Arginine p-nitroanilide (BAPNA)
100 μl 50 mM TRIS pH 7+50 μL Trypsin Stock+50 μL BAPNA Stock
100 μl Copper solution (according to the above described dilutions)+50 μL Trypsin Stock+50 μL BAPNA Stock
Absorption was measured after 15 minutes at 405 nm.
Values were corrected (subtraction of blank).
100 mg/ml Zinc bisglycinate in 50 mM TRIS pH 7; pH was adjusted to pH 7; stock solution was diluted to the following concentrations: 50 mg/ml and 25 mg/ml
100 μl Zinc solution (according to the above described dilutions)+50 μL Trypsin Stock+50 μL BAPNA Stock
10 mg/ml iron gluconate in 50 mM TRIS pH 7; pH was adjusted to pH 7; stock solution was diluted to the following concentrations: 5 mg/ml, 2.5 mg/ml, 1.25 mg/ml and 0.625 mg/ml
100 μl Iron solution (according to the above described dilutions)+50 μL Trypsin Stock+50 μL BAPNA Stock
Absorption was measured directly at 405 nm.
Benzoyl-Arginine p-nitroanilide (BAPNA): 0.5 mg/ml in 50 mM TRIS pH 7 (centrifuged and supernatant used as stock solution)
Trypsin: […] in 50 mM TRIS pH 7
1 mg/mL iron gluconate in 10 mM TRIS pH 7 (iron content=12%), 0.12 mg/ml iron
12 mg/mL copper lysinate in 10 mM TRIS pH 7 (copper content=3%), 0.12 mg/ml copper
100 μl of the respective salt solution+50 μL Trypsin Stock+50 μL BAPNA Stock
Experiments were carried out at pH 7, 50 mM TRIS.
0.025 mg/ml Trypsin, 0.125 mg/mL Benzoyl-Arginine p-nitroanilide (BAPNA.) Lauryl glutamate:
0.25 mg/ml; copper content (as copper(II)gluconate): 0.035 mg/ml.
Adsorption measurement at 405 nm
0.025 mg/ml Trypsin, 0.125 mg/mL Benzoyl-Arginine p-nitroanilide (BAPNA). lauryl-glutamate:
Absorption measurement at 405 nm
0.025 mg/ml Trypsin, 0.125 mg/mL Benzoyl-Arginine p-nitroanilide (BAPNA). Capryl-glucoside:
Copper sulfate stock solution: 1 mg/ml of copper sulfate was dissolved in 50 mM TRIS pH 7. Copper tartrate stock solution: 1 mg/ml of copper tartrate was dispersed in 50 mM TRIS pH 7 and moderately stirred for 5 minutes. The suspension was then centrifuged at 3′000 rpm for 10 minutes, to separate the insoluble salt. The supernatant was used as stock solution for the experiments.
Zinc orotate stock solution: 1 mg/ml of zinc orotate was dispersed in 50 mM TRIS pH 7 and moderately stirred for 5 minutes. The suspension was then centrifuged at 3′000 rpm for 10 minutes, to separate the insoluble salt. The supernatant was used as stock solution for the experiments.
100 μL of the respective salt solution stock+50 μL Trypsin Stock+50 μL BAPNA Stock
Control: 100 μL of 50 mM TRIS pH 7+50 μL Trypsin Stock+50 μL BAPNA Stock
Final concentrations of protease and substrate were 0.025 mg/ml Trypsin, 0.125 mg/mL
50 μl manganese sulfate+50 μl copper gluconate+50 μL Trypsin Stock+50 μL BAPNA Stock
Absorption measurement at 405 nm; final pH in all solutions was monitored to be pH 7.
3 mg/ml SiO2—suspended in 50 mM TRIS pH 7 and centrifuged; supernatant was used for experiments.
50 μl SiO2+50 μl 50 mM TRIS pH 7+50 μL Trypsin Stock+50 μL BAPNA Stock
50 μl copper gluconate+50 μl SiO2+50 μL Trypsin Stock+50 μL BAPNA Stock
50 μl iron gluconate+50 μl SiO2+50 μL Trypsin Stock+50 μL BAPNA Stock
120 μl 50 mM TRIS pH 7+50 μL Trypsin Stock+50 μL BAPNA Stock
80 μl copper gluconate+40 μl 50 mM TRIS pH 7+50 μL Trypsin Stock+50 μL BAPNA Stock
40 μl copper gluconate+80 μl 50 mM TRIS pH 7+50 μL Trypsin Stock+50 μL BAPNA Stock
80 μl iron gluconate+40 μl 50 mM TRIS pH 7+50 μL Trypsin Stock+50 μL BAPNA Stock
40 μl iron gluconate+80 μl 50 mM TRIS pH 7+50 μL Trypsin Stock+50 μL BAPNA Stock
80 μl iron gluconate+40 μl copper gluconate+50 μL Trypsin Stock+50 μL BAPNA Stock

[2] = molecular target: chymotrypsin (Bos taurus, UniProt P00766); assay: Chymotrypsin inhibition, BTPNA substrate, absorbance at 405 nm (Examples 9, 13-19, 23, 24, 27, 30, 31)
Protocol: CuSO4.5H2O dilutions in 10 mM TRIS buffer pH 7 to 10 mM, 5 mM, 2.5 mM 1.25 mM Benzoyl-Tyrosine p-nitroanilide (BTPNA): 0.5 mg/mL BTPNA in Acetone
Study: • (1) 100 μl buffer (10 mM TRIS, pH=7)+50 μl Chymotrypsin Stock+50 μl BTPNA • (2) 80 μl buffer (10 mM TRIS, pH=7)+20 μl CuSO4 stock (10 mM)+50 μl Chymotrypsin Stock+50 μl BTPNA • (3) 80 μl buffer (10 mM TRIS, pH=7)+20 μl CuSO4 dilut. (5 mM)+50 μl Chymotrypsin Stock+50 μl BTPNA • (4) 80 μl buffer (10 mM TRIS, pH=7)+20 μl CuSO4 stock (2.5 mM)+50 μl Chymotrypsin Stock+50 μl BTPNA • (5) 80 μl buffer (10 mM TRIS, pH=7)+20 μl CuSO4 dilut. (1.25 mM)+50 μl Chymotrypsin Stock+50 μl BTPNA
Final copper concentrations: 1 mM, 0.5 mM, 0.25 mM, 0.125 mM.
10 mM CuSO4 and Copper gluconate stock solution were diluted 1:1 with 10 mM TRIS buffer pH 7
Study: • (1) 100 μl buffer (10 mM TRIS, pH=7)+50 μl Chymotrypsin Stock+50 μl BTPNA • (2) 80 μl buffer (10 mM TRIS, pH=7)+20 μl CuSO4 dil. (5 mM)+50 μl Chymotrypsin Stock+50 μl BTPNA • (3) 80 μl buffer (10 mM TRIS, pH=7)+20 μl Copper gluconate dilut. (5 mM)+50 μl Chymotrypsin Stock+50 μl BTPNA • (4) 100 μl Cu-bisglycinate stock (0.5 mM)+50 μl Chymotrypsin Stock+50 μl BTPNA
10 mM CuSO4 stock solution was diluted 1:1 with 10 mM TRIS Puffer pH 7
Study: • (1) 30 μl buffer (10 mM TRIS, pH=7)+20 μl CuSO4 dil. (5 mM)+100 μl Chymotrypsin Stock: 30 min. incubation, then addition of 50 μl BTPNA • (2) 30 μl buffer (10 mM TRIS, pH=7)+100 μl Chymotrypsin Stock: 30 min. incubation, then addition of 20 μl CuSO4 dil. (5 mM)+50 μl BTPNA
Final copper concentration: 0.5 mM
Iron(II)-bisglycinate solution containing 1.86 mM of iron in 10 mM TRIS buffer pH 7 was prepared
Cu(II)-gluconate solution containing 2.0 mM of copper in 10 mM TRIS buffer pH 7 was prepared
Study: • (1) 100 μl buffer (10 mM TRIS, pH=7)+50 μl Chymotrypsin Stock+50 μl BTPNA • (2) 100 μl iron(II)-bisglycinate+50 μl Chymotrypsin Stock+50 μl BTPNA • (3) 100 μl copper(II)-gluconate+50 μl Chymotrypsin Stock+50 μl BTPNA
Values were corrected (subtraction of blank). Inhibition was calculated by setting the absorption value of (1) at each time-point as 100%.
Iron(II)-bisglycinate solution containing 0.46 mM of iron in 10 mM TRIS buffer pH 7 was prepared
Cu(II)- bisglycinate solution containing 0.46 mM of copper in 10 mM TRIS buffer pH 7 was prepared
Study: • (1) 100 μl buffer (10 mM TRIS, pH=7)+50 μl Chymotrypsin Stock+50 μl BTPNA • (2) 100 μl iron(II)-bisglycinate+50 μl Chymotrypsin Stock+50 μl BTPNA • (3) 100 μl copper(II)-bisglycinate+50 μl Chymotrypsin Stock+50 μl BTPNA
Values were corrected (subtraction of blank). Inhibition (%) was calculated by setting the absorption value of (1) at each time-point as 100% degradation.
Values were corrected (subtraction of blank). pH was confirmed to be pH 7 after the experiment.
0.025 mg/ml Chymotrypsin, 0.05 mg/mL Benzoyl-Tyrosine p-nitroanilide (BTPNA). Lauryl glutamate: 0.25 mg/ml; copper (as copper gluconate): 0.035 mg/ml.
0.025 mg/ml Chymotrypsin, 0.05 mg/mL Benzoyl-Tyrosine p-nitroanilide (BTPNA). Lauryl glutamate: 0.25 mg/ml; iron (as iron gluconate): 0.03 mg/ml.
100 μl 50 mM TRIS pH 7+50 μL Chymotrypsin Stock+50 μL BTPNA Stock
50 μl Beta-cyclodextrin+50 μl 50 mM TRIS pH 7+50 μL Chymotrypsin Stock+50 μL BTPNA Stock
50 μl copper gluconate+50 μl 50 mM TRIS pH 7+50 μL Chymotrypsin Stock+50 μL BTPNA Stock
50 μl copper gluconate+50 μl Beta-cyclodextrin+50 μL Chymotrypsin Stock+50 μL BTPNA Stock
50 μl copper gluconate+50 μl trisodium phosphate+50 μL Chymotrypsin Stock+50 μL BTPNA Stock
50 μl iron gluconate+50 μl trisodium phosphate+50 μL Chymotrypsin Stock+50 μL BTPNA Stock
Experiments were carried out at pH 7 in 50 mM TRIS buffer.

[3] = GLP-1 peptide formulations with SNAC and trace elements: dissolution in aqua purificata, visual (Example 4); format: physicochemical; settings: liraglutide 1.8 mg/ml, SNAC 20 mg, trace element 2 mg, disodium phosphate dihydrate, 2 ml aqua purificata
Protocol: Compositions comprising a GLP-1 peptide, a complexing agent (disodium phosphate dihydrate), the absorption enhancer N-(8-[2-hydroxybenzoyl]amino)caprylic acid (SNAC) and various trace elements or metal salts were prepared and dissolved in 2 ml of aqua purificata and examined visually.

[4] = Compatibility of absorption enhancers with trace elements: dissolution in aqueous medium, visual examination (Example 1); format: physicochemical
Protocol: Solid dry powder mixtures of desmopressin acetate, zinc sulfate or iron(III) chloride, and different absorption enhancers were prepared and dissolved in 2 ml aqua purificata.

[5] = Example 20, solutions 1 mg/mL iron gluconate, 1 mg/mL copper gluconate, 12 mg/mL copper lysinate, FIG. 11
[6] = Example 22, lauryl-glutamate […], iron 0.03 mg/ml, pH 7, 50 mM TRIS, FIG. 13
[7] = desmopressin acetate + FeCl3 5 mg/ml + absorption enhancer 10 mg/ml in 2 ml aqua purificata
[8] = desmopressin acetate + ZnSO4 5 mg/ml + absorption enhancer 10 mg/ml in 2 ml aqua purificata
[9] = Example 26, 1 mg/ml stocks (supernatant for copper tartrate and zinc orotate), pH 7, 50 mM TRIS, FIG. 17
[10] = Example 16, 0 minutes, metal ion 0.015 mg/ml ([…]), 10 mM TRIS pH 7

Row | Dissolution in aqueous medium (2 ml) [4, 7] | Dissolution in aqueous medium (2 ml) [4, 8] | Compound | Dissolution in aqua purificata [3] | also measured
1 |  |  | Iron gluconate | Clear orange solution | inhibition of trypsin ([1]; Example 12, iron gluconate solutions 10 to 0.625 mg/ml, 50 mM TRIS pH 7, FIG. 5): inhibits the proteolytic enzyme trypsin in a dose dependent manner; trypsin inhibition [1, 5]: can be inhibited; trypsin inhibition [1, 6]: can be inhibited; trypsin inhibition ([1]; Example 25, capryl-glucoside […], iron 0.03 mg/ml, pH 7, 50 mM TRIS, FIG. 16): can be inhibited; trypsin inhibition ([1]; Example 33, stocks 1 mg/ml copper(II)gluconate, 1 mg/ml iron(II)gluconate, 40 or 80 μl, pH 7, FIG. 23): can be inhibited; chymotrypsin inhibition ([2]; Example 24, lauryl glutamate […], iron 0.03 mg/ml, pH 7, 50 mM TRIS, FIG. 15): can be inhibited
2 | Precipitation | Precipitation | CCCCCCCCCC(=O)[O-].[Na+] [Sodium caprate] |  | 
3 | Clear solution | Clear solution | CCCCCCCCO[C@@H]1O[C@H](CO)[C@@H](O)[C@H](O)[C@H]1O [n-Octyl-b-D-glucopyranoside] |  | 
4 |  |  | lauryl-glutamate |  | trypsin inhibition ([1]; Example 21, lauryl glutamate […], copper […], pH 7, 50 mM TRIS, FIG. 12): can be inhibited; trypsin inhibition [1, 6]: can be inhibited
5 | Clear solution | Clear solution | CCCCCCCCCCCCOS(=O)(=O)[O-].[Na+] [Sodium dodecyl sulfate] |  | 
6 |  |  | Zinc picolinate | Clear solution | 
7 |  |  | CC(=O)[O-].CC(=O)[O-].[Zn+2] [Zinc acetate] | precipitation | 
8 |  |  | Zinc orotate | Clear solution | trypsin inhibition [1, 9]: show trypsin inhibitory properties in vitro
9 | Precipitation | Precipitation | CCCCCCCC(=O)[O-].[Na+] [Sodium caprylate] |  | 
10 | Clear solution | Clear solution | CCCCCCCCCCCCO[C@@H]1O[C@H](CO)[C@@H](O[C@H]2O[C@H](CO)[C@@H](O)[C@H](O)[C@H]2O)[C@H](O)[C@H]1O [n-Dodecyl-b-D-maltoside] |  | 
11 |  |  | NCC(=O)[O-].NCC(=O)[O-].[Cu+2] [Copper-bisglycinate] |  | Inhibition % [2, 10]: 0%
12 |  |  | NCC(=O)[O-].NCC(=O)[O-].[Zn+2] [zinc bisglycinate] |  | inhibition of trypsin ([1]; pH 7): inhibits the proteolytic enzyme trypsin in a dose dependent manner
13 |  |  | Zinc carnosine | Clear solution | 
14 |  |  | Copper orotate | Clear solution | 
15 |  |  | [Cl-].[Cl-].[Zn+2] [ZnCl2, zinc chloride] | precipitation | 
16 |  |  | [Cl][Fe]([Cl])[Cl] [Fe(III)chlorid, iron(III) chloride] | precipitation | 
17 |  | Clear solution | O=C(O)CC(O)(CC(=O)O)C(=O)O [Citric acid] |  | 
18 |  |  | O=C([O-])C(O)C(O)C(=O)[O-].[Cu+2] (stereo not shown) [copper tartrate] |  | trypsin inhibition [1, 9]: show trypsin inhibitory properties in vitro
19 |  |  | O=C(O)CN(CCN(CC(=O)O)CC(=O)O)CC(=O)O [EDTA] |  | chymotrypsin inhibition ([2]; Example 18, stocks: copper gluconate 10 mM, EDTA 5 mM, sodium caprylate 4 mg/ml, pH 7, FIG. 9): can inhibit chymotrypsin; effect on chymotrypsin inhibition ([2]; Example 19, EDTA added to a solution of copper gluconate, Tween 20 and sodium caprylate, FIG. 10): positive effect on chymotrypsin inhibition; chymotrypsin inhibition ([2]; Example 31, stocks […] copper(II)gluconate, 1.25 mM EDTA, pH 7, 10 mM TRIS, FIG. 22): can be inhibited
20 |  |  | NCC(=O)[O-].NCC(=O)[O-].[Fe+2] [Iron bisglycinate] | Clear brownish solution | Inhibition % ([2]; Example 15, 0 minutes, metal ion Fe 0.06 mg/ml (0.92 mM), Cu 0.065 mg/ml (1.0 mM), 10 mM TRIS pH 7): 0%; Inhibition % ([2]; Example 15, 15 minutes, metal ion Fe 0.92 mM, Cu 1.0 mM): 69%; Inhibition % ([2]; Example 15, 30 minutes, metal ion Fe 0.92 mM, Cu 1.0 mM): 62%; Inhibition % ([2]; Example 15, 45 minutes, metal ion Fe 0.92 mM, Cu 1.0 mM): 56%; Inhibition % ([2]; Example 15, 60 minutes, metal ion Fe 0.92 mM, Cu 1.0 mM): 52%; Inhibition % [2, 10]: 0%
21 |  |  | NCCCC[C@H](N)C(=O)O.NCCCC[C@H](N)C(=O)O.[Cu] [copper(II)lysinate] |  | trypsin inhibition [1, 5]: can be inhibited
22 |  |  | O=S(=O)([O-])[O-].[Zn+2] [ZnSO4, zinc sulfate] | precipitation | 

Row | Compound | Dissolution in aqueous medium (2 ml) [4, 7] | Dissolution in aqueous medium (2 ml) [4, 8] | Dissolution in aqua purificata [3] | also measured
23 | C[C@H](CCC(=O)O)[C@H]1CC[C@H]2[C@@H]3[C@H](O)C[C@@H]4C[C@H](O)CC[C@]4(C)[C@H]3C[C@H](O)[C@]12C [Cholic acid] | Precipitation | Precipitation |  | 
24 | C[C@H](CCC(=O)[O-])[C@H]1CC[C@H]2[C@@H]3[C@H](O)C[C@@H]4C[C@H](O)CC[C@]4(C)[C@H]3C[C@H](O)[C@]12C.[Na+] [Sodium cholate] | Precipitation | Precipitation |  | 
25 | CCCCCCCCCCCC(=O)OC(CC(=O)O)C[N+](C)(C)C.[Cl-] (stereo not shown) [Lauroyl carnitine HCl] | Clear solution | Clear solution |  | 
